Literature values in patent US20040192658A1, “Compositions and methods of using collajolie” (Angiotech International AG, priority 2002, published 2004).

T1: interstitial collagenase (Homo sapiens, UniProt P03956)
T1 sequence (P03956 100-469): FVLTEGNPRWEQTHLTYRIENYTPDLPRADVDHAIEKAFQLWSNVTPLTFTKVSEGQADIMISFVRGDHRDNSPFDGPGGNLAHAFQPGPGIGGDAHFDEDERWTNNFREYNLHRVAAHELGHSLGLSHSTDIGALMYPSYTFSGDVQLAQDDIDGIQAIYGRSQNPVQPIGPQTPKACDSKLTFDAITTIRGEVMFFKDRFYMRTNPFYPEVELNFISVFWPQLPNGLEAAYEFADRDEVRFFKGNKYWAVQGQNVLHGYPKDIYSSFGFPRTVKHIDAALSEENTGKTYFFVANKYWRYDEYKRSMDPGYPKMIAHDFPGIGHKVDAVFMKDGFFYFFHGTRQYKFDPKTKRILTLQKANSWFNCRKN

T2: gelatinase A (Homo sapiens, UniProt P08253)
T2 sequence (P08253 110-660): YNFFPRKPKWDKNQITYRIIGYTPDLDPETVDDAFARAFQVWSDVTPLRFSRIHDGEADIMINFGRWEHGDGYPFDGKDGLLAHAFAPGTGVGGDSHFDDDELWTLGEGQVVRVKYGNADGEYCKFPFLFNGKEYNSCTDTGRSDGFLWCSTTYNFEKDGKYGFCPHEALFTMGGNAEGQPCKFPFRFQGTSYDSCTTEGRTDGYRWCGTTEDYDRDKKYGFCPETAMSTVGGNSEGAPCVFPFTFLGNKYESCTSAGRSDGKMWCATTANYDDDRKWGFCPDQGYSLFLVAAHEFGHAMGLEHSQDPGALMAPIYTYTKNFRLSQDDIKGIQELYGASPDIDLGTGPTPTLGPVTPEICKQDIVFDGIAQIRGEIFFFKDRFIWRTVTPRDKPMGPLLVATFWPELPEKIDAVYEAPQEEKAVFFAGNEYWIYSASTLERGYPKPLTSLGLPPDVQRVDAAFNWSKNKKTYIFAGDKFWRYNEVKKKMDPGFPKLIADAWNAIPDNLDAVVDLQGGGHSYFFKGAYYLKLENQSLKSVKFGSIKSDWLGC

T3: collagenase 1 (Homo sapiens, UniProt P03956)
T3 sequence (P03956 100-469): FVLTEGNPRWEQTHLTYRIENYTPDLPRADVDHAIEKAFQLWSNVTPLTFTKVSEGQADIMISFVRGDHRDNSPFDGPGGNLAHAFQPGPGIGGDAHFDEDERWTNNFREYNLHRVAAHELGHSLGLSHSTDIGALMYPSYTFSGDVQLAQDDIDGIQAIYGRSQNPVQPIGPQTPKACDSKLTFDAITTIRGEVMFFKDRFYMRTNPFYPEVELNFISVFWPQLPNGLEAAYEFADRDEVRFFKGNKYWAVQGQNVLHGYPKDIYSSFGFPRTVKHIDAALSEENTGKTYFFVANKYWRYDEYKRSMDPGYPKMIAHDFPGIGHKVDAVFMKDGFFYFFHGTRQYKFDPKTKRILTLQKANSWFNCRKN


Columns and labels:
[1] = target: T1, interstitial collagenase; conditions: compared with TIMP-2
[2] = system: stromelysin
[3] = target: T2, gelatinase A
[4] = target: T3, collagenase 1
[5] = target: gelatinase B (Homo sapiens, UniProt P14780)
Sequence of gelatinase B (P14780 94-707, species assumed): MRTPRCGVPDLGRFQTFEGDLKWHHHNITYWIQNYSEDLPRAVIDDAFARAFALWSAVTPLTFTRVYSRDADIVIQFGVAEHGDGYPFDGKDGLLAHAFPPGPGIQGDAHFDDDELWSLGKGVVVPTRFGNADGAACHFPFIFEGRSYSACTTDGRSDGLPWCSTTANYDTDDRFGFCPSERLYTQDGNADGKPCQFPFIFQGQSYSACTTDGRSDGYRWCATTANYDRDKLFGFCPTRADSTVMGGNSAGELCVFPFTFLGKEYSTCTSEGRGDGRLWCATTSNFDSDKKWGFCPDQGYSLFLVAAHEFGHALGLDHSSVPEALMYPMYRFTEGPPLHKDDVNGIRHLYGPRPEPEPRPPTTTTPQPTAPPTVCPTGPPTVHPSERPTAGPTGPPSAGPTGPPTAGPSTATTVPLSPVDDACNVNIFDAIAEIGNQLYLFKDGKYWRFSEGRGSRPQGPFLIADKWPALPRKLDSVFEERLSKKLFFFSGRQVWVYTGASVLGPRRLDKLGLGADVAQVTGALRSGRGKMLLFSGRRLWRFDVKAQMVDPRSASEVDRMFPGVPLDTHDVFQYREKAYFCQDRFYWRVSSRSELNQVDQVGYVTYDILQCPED

| Molecule | well tolerated daily dosage [mg] | established (well) tolerated single dose [mg] | further results |
| --- | --- | --- | --- |
| C[C@H]1c2cccc(O)c2C(=O)C2=C(O)[C@]3(O)C(=O)C(C(N)=O)=C(O)[C@@H](N(C)C)[C@@H]3[C@@H](O)[C@@H]21 [doxycycline, α-6-deoxy-5-hydroxy-tetracycline] | 100 | 200 |  |
| TIMP-1: 30 kD Tissue Inhibitor of Matrix Metalloproteinase, the most commonly expressed TIMP molecule |  |  | inhibition of interstitial collagenase [1]: better inhibitor of interstitial collagenase than TIMP-2 |
| CNC(=O)[C@@H](NC(=O)[C@H](CC(C)C)[C@H](O)C(=O)NO)C(C)(C)C |  |  | established well tolerated single daily dose (single daily dose): 50 mg |
| CN(C)[C@@H]1C(O)=C(C(N)=O)C(=O)[C@@]2(O)C(O)=C3C(=O)c4c(O)cccc4[C@@](C)(O)C3C[C@@H]12 (stereo in doubt) [tetracycline, 4-(dimethylamino)-1,4,4a,5,5a,6,11,12a-octahydro-3,6,10,12,12a-pentahydroxy-6-methyl-1,11-dioxo-2-naphthacenecarboxamide] | 1000 | 1000 |  |
| CN(C)c1ccc(O)c2c1C[C@H]1C[C@H]3[C@H](N(C)C)C(O)=C(C(N)=O)C(=O)[C@@]3(O)C(O)=C1C2=O [minocycline, 7-dimethylamino-6-dimethyl-6-deoxytetracycline] | 200 | 200 |  |
| CN1C(=O)N(C[C@H](C(=O)NO)[C@@H](CC2CCCC2)C(=O)N2CCCCC2)C(=O)C1(C)C [TROCADE] |  | 150 |  |
| TIMP-3: 21 kD Tissue Inhibitor of Matrix Metalloproteinase (protein, UniProt P35625 24-211, looked up) Metalloproteinase inhibitor 3: CTCSPSHPQDAFCNSDIVIRAKVVGKKLVKEGPFGTLVYTIKQMKMYRGFTKMPHVQYIHTEASESLCGLKLEVNKYQYLLTGRVYDGKMYTGLCNFVERWDQLTLSQRKGLNYRYHLGCNCKIKSCYYLPCFVTSKNECLWTDMLSNFGYPGYQSKHYACIRQKGGYCSWYRGWAPPDKSIINATDP |  |  | inhibition of stromelysin [2]: inhibits; inhibition of gelatinase A [3]: inhibits; inhibition of collagenase 1 [4]: inhibits; inhibition of gelatinase B [5]: inhibits |
